In this assay the test system is worms expressing human Abeta and alpha-synuclein. As to the kind of experiment: Neurodegenerative C. elegans models expressing human Abeta and alpha-synuclein (Example 1). It counts as in vivo. The following applies: worms expressing human Abeta and alpha-synuclein (FIG. 11). Here is the method:
FIGS. 11A-11D illustrate that coumarin 106 (“C1”, “AIC106”) is protective in a TFEB-dependent manner in C. elegans models that express human neurotoxic proteins. FIG. 11A) Transgenic worm strain expressing human alpha-synuclein under control of the dopamine-specific promoter grown on control or HLH-30 RNAi were exposed to 20 μM C1 versus DMSO-only controls on day-1 of adulthood. GFP+ cell counts were performed in young adults. Values represent number of animals displaying no DAergic cell loss; pooled results from 2 independent experiments. FIG. 11B) Transgenic worm strain expressing human alpha-synuclein under control of the muscle-specific promoter grown on control or HLH-30 RNAi were exposed to 20 μM C1 versus DMSO-only control on day-1 of adulthood followed by transfer to fresh plates every alternative day. Number of trashes per 30 sec were measured at day-6 and day-7 (n>60). *p<0.03, ***p<0.0008, ****p<0.0001. FIG. 11C) Transgenic worms expressing Abeta tagged with GFP within glutaminergic neurons grown on control or HLH-30 RNAi were exposed to 50 or 200 μM C1 versus DMSO-only controls on day-1 of adulthood. GFP+ cell counts were performed in young adults. Values represent % intact neurons. […] Number of trashes per 30 sec were measured at day-6 and day-7 (n>60). *p<0.03, ****p<0.0001. […]

SMILES strings stand for the structures.

As for `O=c1oc2c3c4c(cc2c2c1CCC2)CCCN4CCC3` [C1, 2,3,6,7,10,11-Hexahydro-1H,5H-cyclopenta(3,4)(1)benzopyrano(6,7,8-ij)quinolizin-12(9H)-one], the “protection in neurodegenerative C. elegans models” value was “protection in a TFEB-dependent manner”.

(Values after patent US12673039B2, “Methods of inducing autophagy using coumarin derivatives and related compounds” (Buck Institute for Research on Aging, priority 2019, dated 2026).)
